According to US8076287B2, “Cyclic hexadepsipeptides, processes for their production and their use as pharmaceuticals” (priority 2006, dated 2011):
In brackets after ≈: the same amount, converted by molar mass. Where two headings read alike, the source gives them in different places.

Legend:
[1] = system: S. aureus ATCC ™ 6538P (MSSA); assay: MIC broth dilution, antibacterial activity; format: cell-based; conditions: Staphylococcus aureus, MH medium, 35° C., 16 to 20 hours
[2] = system: S. aureus MRS3 ATCC ™ 700699 (MRSA-hVISA); assay: MIC broth dilution, antibacterial activity; format: cell-based; conditions: Staphylococcus aureus, MH medium, 35° C., 16 to 20 hours
[3] = system: S. epidermidis ATCC ™ 12228; assay: MIC broth dilution, antibacterial activity; format: cell-based; conditions: Staphylococcus epidermidis, ATCC12228, MH medium, 35° C., 16 to 20 hours
[4] = system: Enterococcus faecalis ATCC ™ 29212 (VSE); assay: MIC broth dilution, antibacterial activity; format: cell-based; conditions: ATCC29212, BHI+ medium
[5] = system: Enterococcus faecalis ATCC ™ 51299 (VRE); assay: MIC broth dilution, antibacterial activity; format: cell-based; conditions: BHI+ medium
[6] = system: S. pneumoniae LSPQ 3412 (Penicillin sensitive); assay: MIC broth dilution, antibacterial activity; format: cell-based; conditions: Streptococcus pneumoniae, MH + 2% lysed horse blood
[7] = system: S. pneumoniae LSPQ 3349 (Penicillin resistant); assay: MIC broth dilution, antibacterial activity; format: cell-based; conditions: Streptococcus pneumoniae, MH + 2% lysed horse blood
[8] = system: C. difficile ATCC ™ 9689; assay: microbe, parasite or virus in culture; format: cell-based, Clostridium difficile; conditions: Clostridioides difficile, ATCC9689
[9] = system: C. perfringens HER1390; assay: microbe, parasite or virus in culture; format: cell-based; conditions: Clostridium perfringens
[10] = system: C. diphtheriae HER1356; assay: MIC broth dilution, antibacterial activity; format: cell-based; conditions: Corynebacterium diphtheriae; C. diphtheriae HER1356 (strain C7); MH medium
[11] = system: B. subtilis ATCC ™ 23857; assay: MIC broth dilution, antibacterial activity; format: cell-based; conditions: Bacillus subtilis, ATCC23857, BHI+ medium
[12] = system: M. Luteus ATCC ™ 9341; assay: MIC broth dilution, antibacterial activity; format: cell-based; conditions: Micrococcus luteus, ATCC9341, MH medium
[13] = system: Candida albicans ATCC™10231; assay: Antifungal activity, NCCLS M27-A broth dilution; format: cell-based; conditions: ATCC10231, after 48 hours, RPMI 1640
Protocol: Testing of antifungal activity was performed according to NCCLS method (NCCLS. Reference Method for Broth Dilution Antifungal Susceptibility Testing of Yeasts; Approved Standard. NCCLS document M27-A (ISBN 1-56238-328-0). NCCLS, 940 West Valley Road, Suite 1400, Wayne, Pa. 19087-1898 USA). Compound 1 was prepared as 100× stock solutions in DMSO, with concentrations ranging from 3.2 mg/mL to 0.003 mg/mL (a two-fold dilution series over 11 points). An aliquot of each 100× stock solution was diluted 50-fold in test medium described below to give a set of eleven (11) 2× solutions. 50 μL of each of the eleven 2× solutions was aliquoted into the corresponding well of a 12-well row, with the final well reserved for medium alone control. Inoculum density for the Candida albicans ATCC™10231 indicator strain was adjusted to OD600=0.1 in 5 mL 0.85% saline, then further diluted 1/1000 in RPMI 1640 medium. 50 μL of the final dilution (in test medium) of each indicator strain was added to each well of a 12-well row. This brings the final dilution of the test article or control compound in solution to 1×. The final inoculum was approximately 5×10^4 CFU/ml.

[14] = system: SF-268 (CNS); assay: In vitro cytotoxic activity (propidium iodide GI50); format: cell-based; conditions: Homo sapiens, 96 hrs
[15] = system: HT-29 (colorectal carcinoma); assay: as above; format: cell-based; conditions: Homo sapiens, 96 hrs
[16] = system: MDA-MB-231 (mammary gland adenocarcinoma); assay: as above; format: cell-based; conditions: Homo sapiens, 96 hrs
[17] = system: PC-3 (prostate adenocarcinoma); assay: as above; format: cell-based; conditions: 96 hrs
[18] = system: HUVEC (human umbilical vein endothelial cells); assay: as above; format: cell-based; conditions: 72 hours
[19] = system: human MX-1 breast carcinoma xenograft; assay: In vivo efficacy in human breast cancer xenograft model; set-up: species or system Harlan female athymic nude mice
Protocol: The antitumor activity of Compound 1 was tested in vivo in a human MX-1 breast carcinoma model in mice, formulated in 10% ethanol, 7.5% ethanolic polysorbate 80 (1 g/mL in ethanol), and 82.5% saline. Harlan female athymic nude mice (12 weeks of age on Day 1 (D1)) were used for this study. Human MX-1 carcinoma was maintained in athymic nude mice by serial engraftment. A tumor fragment (1 mm^3) was implanted subcutaneously into the right flank of each test mouse. Tumors were monitored twice weekly and then daily as their mean volume approached 80-120 mm^3.
On D1, animals were sorted into treatment groups 1 to 4 (groups 1 to 3: 9 mice; group 4:10 mice), with tumor sizes of 63-144 mm^3 and group mean tumor sizes of about 99 mm^3. Tumor volumes were calculated as (width^2×length) divided by 2. Tumor weight was estimated with the assumption that 1 mg is equivalent to 1 mm^3 of tumor volume.
Starting on Day 1, each group was treated with dosing volumes of 0.2 mL/20-g mouse in Groups 1 and 2, and 0.1 mL/20-g mouse for Groups 3 and 4, scaled to the body weight of each animal, and according to the following protocol:
Tumor measurements were taken twice weekly using calipers and were converted to tumor weight. Tumor weight was estimated with the assumption that 1 mg is equivalent to 1 mm^3 of tumor volume (tumor volume was determined as above). Body weights were also recorded daily for Day 1 to 5, and then twice weekly.
Each animal was euthanized when its neoplasm reached the predetermined endpoint size (1,500 mm^3). The “time to endpoint” (TTE) for each mouse was calculated by the following equation:
[formula] where “TTE” is expressed in days, “endpoint volume” is in mm^3, “b” is the intercept, and “m” is the slope of the line obtained by linear regression of a log-transformed tumor growth data set. The data set comprised the first observation that exceeded the study endpoint volume and the three consecutive observations that immediately preceded the attainment of the endpoint volume.
Treatment efficacy was determined from “tumor growth delay” (TGD), which is defined as the increase in “T” the median TTE for a treatment group compared to “C” the median for control group 1: TGD=T−C, expressed in days, or as a percentage of the median TTE of the control group (% TGD=(TGD/C)×100).
The “percentage of tumor growth inhibition” (TGI) is calculated as:
[formula] wherein MTVtreated and MTVvehicle are respectively the “median tumor volume” for the animals treated with Compound 1 and animals receiving the vehicle, on day 18 and day 0. Two-tailed statistical analyses were done using GraphPad Prism™ software.
The “MTV(n)” is defined as the median tumor volume on Day 53 in the number of animals remaining, n, whose tumors have not attained endpoint volume.

[20] = system: Sheep red blood cells; assay: In vitro toxicity: hemolytic activity; format: cell-based; conditions: 2 hrs at 37° C., prepared in DMSO
Protocol: In vitro toxicity: Sheep red blood cells were exposed to Compound 1 for 2 hrs at 37° C. at concentrations ranging from 2 to 64 μg/mL. Hemolytic activity was determined by monitoring the amount of hemoglobin released spectrophotometrically.

[21] = In vivo acute toxicity (MTD); set-up: species or system CD-1 nu/nu mice; conditions: CD-1 nu/nu, mouse, saline with 10% EtOH and 7.5% polysorbate 80, read-out: maximum tolerated dose (MTD)
Protocol: In vivo toxicity: The acute toxicity in CD-1 nu/nu mice of Compound 1 was determined in a saline solution comprising 10% EtOH and 7.5% polysorbate 80. When given i.p., the maximum tolerated dose (MTD) was ≧5 mg/kg. The MTD was 2.5 mg/kg when Compound 1 was administered i.v.

For `CCC1OC(O)(C(C)(O)C(=O)NC2C(=O)N3NCCCC3C(=O)N(O)CC(=O)N3NCCCC3C(=O)N3CCC(C)(O)C3C(=O)N(O)C(C(C)C)C(=O)OC2C(C)C)CCC1CC(C)C` (centres unmarked) [Compound 1], the MIC [1] was 0.031 µg/mL (≈ 0.0335 µM), the MIC [2] was 0.5 µg/mL (≈ 0.54 µM) and the MIC [3] was 0.094 µg/mL (≈ 0.102 µM). For the same compound, the MIC [4] was 0.5 µg/mL (≈ 0.54 µM), the MIC [5] was 1 µg/mL (≈ 1.08 µM) and the MIC [6] was 0.156 µg/mL. For the same compound, the MIC [7] was 0.031 µg/mL, the MIC [8] was under 0.008 µg/mL and the MIC [9] was under 0.008 µg/mL. It also gave an MIC [10] of under 0.008 µg/mL, an MIC [11] of 0.004 µg/mL (≈ 0.00432 µM) and an MIC [12] of 0.063 µg/mL (≈ 0.0681 µM). It also gave an MIC [13] of 8 µg/mL (≈ 8.65 µM), a GI50 [14] of 25 nM and a GI50 [15] of 37 nM. The GI50 [16] was 28 nM, the GI50 [17] was 66 nM and the GI50 [18] was 19 nM. For the same compound, the “percentage of tumor growth inhibition (TGI)” value ([19]; 1 mg/kg i.p., median tumor volume vs vehicle, day 18) was 51.6%, the “MTV(3), median tumor volume on Day 53 in animals remaining” value ([19]; 1 mg/kg i.p., n=3 animals not at endpoint volume) was 6 mm^3 and the body weight loss ([19]; 1 mg/kg i.p., on Day 8, mean body weight) was 13%. The “tumor growth delay (TGD)” value ([19]; 1 mg/kg i.p., when compared with vehicle) was 82%, the “body weight loss during q4d dosing” value ([19]; period Compound 1 was given once every four days) was “no severe body weight loss” and the “hemolytic activity (concentration)” value [20] was 12.8 µM. For the same compound, the “hemolytic activity (concentration)” value ([20]; 2 to 64 μg/mL tested) was 11.8 µg/mL, the MTD ([21]; ip) was at least 5 mg/kg and the MTD ([21]; iv) was 2.5 mg/kg.

For `COc1cccc2c1C(=O)c1c(O)c3c(c(O)c1C2=O)C[C@@](O)(C(C)=O)C[C@@H]3O[C@H]1C[C@H](N)[C@H](O)[C@H](C)O1` [Daunorubicin, reference compound], the GI50 [14] was 19 nM, the GI50 [15] was 20 nM and the GI50 [16] was 9 nM. For the same compound, the GI50 [17] was 11 nM.

For `CN[C@H](CC(C)C)C(=O)N[C@H]1C(=O)N[C@@H](CC(N)=O)C(=O)N[C@H]2C(=O)N[C@H]3C(=O)N[C@H](C(=O)N[C@H](C(=O)O)c4cc(O)cc(O)c4-c4cc3ccc4O)[C@H](O)c3ccc(c(Cl)c3)Oc3cc2cc(c3O[C@@H]2O[C@H](CO)[C@@H](O)[C@H](O)[C@H]2O[C@H]2C[C@](C)(N)[C@H](O)[C@H](C)O2)Oc2ccc(cc2Cl)[C@H]1O` [Vancomycin, reference compound], the MIC [6] was 0.25 µg/mL, the MIC [7] was 0.5 µg/mL and the MIC [8] was 0.25 µg/mL (≈ 0.173 µM). It also gave an MIC [9] of 0.5 µg/mL (≈ 0.345 µM), an MIC [10] of 0.5 µg/mL (≈ 0.345 µM) and an MIC [11] of 0.25 µg/mL (≈ 0.173 µM). It also gave an MIC [12] of 2 µg/mL (≈ 1.38 µM).
